TGI data for 7 molecules are collected here from PubChem BioAssay (NCI).

Some test systems named below: 786-0 renal; ACHN renal; BT-549 breast; CAKI-1 renal; CCRF-CEM leukemia; EKVX NSCLC; HCC-2998 colon; HCT-15 colon; IGROV1 ovarian; LOX IMVI melanoma; MALME-3M melanoma; MDA-N; NCI-H23 lung; OVCAR-8 ovarian; SK-MEL-2 melanoma; SK-MEL-28 melanoma; SK-OV-3 ovarian; SN12C renal; SW-620 colon; TK-10 renal.
What all share (experiment): inhibition of tumour cell growth, NCI panel, 48 h

Each structure is given as a SMILES string.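 Exposure lasted 48 hours, with cells grown in 96-well plates and compounds tested at five concentrations. At the TGI there is no net growth.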 A value given as a limit tells only on which side of the number the result lay.

As for `O=C(O)[C@@H]1NC[C@H]2C(Br)=NO[C@H]21`, the TGI in the assay on 786-0 renal, in the assay on ACHN renal, with BT-549 breast, in the assay on CAKI-1 renal, with CCRF-CEM leukemia and with EKVX NSCLC was more than 100 µM throughout. Further, the TGI in the assay with HCC-2998 colon, with HCT-15 colon, in the assay with IGROV1 ovarian, with LOX IMVI melanoma, in the assay on MALME-3M melanoma and with MDA-N was more than 100 µM each time. The TGI in the assay on NCI-H23 lung, in the assay on OVCAR-8 ovarian, in the assay with SK-MEL-2 melanoma, in the assay on SK-MEL-28 melanoma, with SK-OV-3 ovarian and in the assay with SN12C renal was more than 100 µM throughout. Moreover, the TGI in the assay with SW-620 colon and with TK-10 renal was more than 100 µM throughout.

`NS(=O)(=O)c1ccc(Nc2c3ccccc3nc3c(C(=O)NCCO)cccc23)cc1`: the TGI in the assay with 786-0 renal is 0.283 µM; in the assay on ACHN renal, 0.917 µM; in the assay on BT-549 breast, 0.311 µM; with CAKI-1 renal it was 0.546 µM; in the assay on CCRF-CEM leukemia, more than 1 µM; in the assay with EKVX NSCLC, 0.772 µM. Moreover, the TGI with HCC-2998 colon worked out at 0.333 µM; in the assay on HCT-15 colon it was 0.333 µM; in the assay with IGROV1 ovarian, 0.45 µM; in the assay on LOX IMVI melanoma, 0.267 µM; with MALME-3M melanoma it was 0.268 µM; in the assay with MDA-N it was 0.412 µM. For the same molecule, the TGI was found to be 0.293 µM in the assay on NCI-H23 lung; 0.902 µM with OVCAR-8 ovarian; 0.334 µM in the assay on SK-MEL-2 melanoma; 0.338 µM in the assay on SK-MEL-28 melanoma; 0.649 µM in the assay with SK-OV-3 ovarian; 0.557 µM with SN12C renal. The TGI with SW-620 colon came to 0.277 µM; with TK-10 renal it was 0.726 µM.

Consider `Nc1ncnc2c1ncn2[C@H]1CC[C@@H](NO)C1`, for which the TGI in the assay with 786-0 renal, in the assay with ACHN renal, with BT-549 breast, with CAKI-1 renal, in the assay with CCRF-CEM leukemia and in the assay with EKVX NSCLC was more than 100 µM throughout. The TGI in the assay on HCC-2998 colon, in the assay on HCT-15 colon, in the assay with IGROV1 ovarian, in the assay with LOX IMVI melanoma, with MALME-3M melanoma and with MDA-N was more than 100 µM throughout. Also, the TGI with NCI-H23 lung, in the assay with OVCAR-8 ovarian, in the assay on SK-MEL-2 melanoma, in the assay on SK-MEL-28 melanoma, with SK-OV-3 ovarian and in the assay with SN12C renal was more than 100 µM each time. For the same molecule, the TGI with SW-620 colon and in the assay on TK-10 renal was more than 100 µM each time.

With `CCCCCCCCCCCCCCCCOCC(CCl)OP(=O)(O)OP(=O)(O)OCC1OC(n2ccc(N)nc2=O)C(O)C1O` (stereo not given), the TGI in the assay on 786-0 renal, with ACHN renal, in the assay on BT-549 breast, in the assay on CAKI-1 renal, in the assay on CCRF-CEM leukemia and in the assay with EKVX NSCLC was more than 100 µM each time. For the same molecule, the TGI with HCC-2998 colon, with HCT-15 colon, with IGROV1 ovarian, with LOX IMVI melanoma, with MALME-3M melanoma and with MDA-N was more than 100 µM throughout. Also, the TGI in the assay with NCI-H23 lung, in the assay with OVCAR-8 ovarian, with SK-MEL-2 melanoma, in the assay with SK-MEL-28 melanoma, in the assay with SK-OV-3 ovarian and with SN12C renal was more than 100 µM in each case. Also, the TGI with SW-620 colon and in the assay on TK-10 renal was more than 100 µM throughout.

As to `Cc1ccc2c(=O)cc(-c3ccsc3)[nH]c2n1`, the TGI with 786-0 renal is more than 100 µM; in the assay on ACHN renal, more than 100 µM; with BT-549 breast, more than 100 µM; with CAKI-1 renal, more than 100 µM; in the assay with CCRF-CEM leukemia, more than 83 µM; in the assay on EKVX NSCLC it was more than 100 µM. Moreover, the TGI in the assay on HCC-2998 colon was 42.9 µM; in the assay on HCT-15 colon, more than 62.9 µM; with IGROV1 ovarian, more than 100 µM; with LOX IMVI melanoma it was more than 56.6 µM; in the assay on MALME-3M melanoma it was more than 100 µM; in the assay on MDA-N, 2.09 µM. Also, the TGI is more than 25.2 µM with NCI-H23 lung; more than 100 µM in the assay on OVCAR-8 ovarian; more than 30.6 µM in the assay on SK-MEL-2 melanoma; more than 100 µM in the assay on SK-MEL-28 melanoma; 72.6 µM in the assay on SK-OV-3 ovarian; more than 86.2 µM with SN12C renal. The values for the TGI with SW-620 colon and with TK-10 renal were more than 21.1 µM and more than 100 µM, respectively.

On to `Cc1ccc(NC2=N/C(=C/c3ccccc3)C(Cl)=N2)cc1`, for which the TGI with 786-0 renal, with ACHN renal, in the assay with BT-549 breast, in the assay with CAKI-1 renal, in the assay with CCRF-CEM leukemia and in the assay with EKVX NSCLC was more than 100 µM in each case. Further, the TGI in the assay on HCC-2998 colon, in the assay with HCT-15 colon, in the assay with IGROV1 ovarian, with LOX IMVI melanoma, with MALME-3M melanoma and with MDA-N was more than 100 µM throughout. The TGI with NCI-H23 lung, with OVCAR-8 ovarian, in the assay on SK-MEL-2 melanoma, with SK-MEL-28 melanoma, in the assay with SK-OV-3 ovarian and with SN12C renal was more than 100 µM throughout. Further, the TGI with SW-620 colon and in the assay with TK-10 renal was more than 100 µM in each case.

As for `CC(C)=CCN1c2ccc(Cl)cc2NC(=O)CC1C` (stereo not given), the TGI in the assay with 786-0 renal is 34.8 µM; in the assay on ACHN renal it was 58.3 µM; with BT-549 breast, 59.5 µM; in the assay with CAKI-1 renal it was 43.8 µM; in the assay on CCRF-CEM leukemia, more than 100 µM; in the assay on EKVX NSCLC it was 83.5 µM. In addition, the TGI in the assay with HCC-2998 colon is more than 100 µM; in the assay with HCT-15 colon, more than 100 µM; in the assay on IGROV1 ovarian, 62.4 µM; in the assay on LOX IMVI melanoma, 33.2 µM; in the assay on MALME-3M melanoma, 49.6 µM; with MDA-N, 51.7 µM. Moreover, the TGI with NCI-H23 lung is 74.9 µM; with OVCAR-8 ovarian, 39.6 µM; with SK-MEL-2 melanoma, 39.5 µM; in the assay on SK-MEL-28 melanoma, more than 100 µM; in the assay with SK-OV-3 ovarian it was more than 100 µM; in the assay on SN12C renal, 58 µM. Besides, the TGI in the assay with SW-620 colon was more than 100 µM; in the assay on TK-10 renal, 87.7 µM.
